How the values were obtained:
[1] = target: T1, human D4 receptor (D4.2 sub-type) (Homo sapiens, UniProt P21917, DEL265-296); assay: Dopamine D4 Receptor Binding Assay (3H-spiperone displacement); details: 3H-spiperone 0.25 nM; cells stably transfected with human D4.2; 90 minutes, room temperature, pH 7.4
T1 construct: expressed in transfected cells; host or cells: HEK 298 [sic] (human embryonic kidney) cells
T1 sequence (P21917 with tags, fused parts or gaps DEL265-296): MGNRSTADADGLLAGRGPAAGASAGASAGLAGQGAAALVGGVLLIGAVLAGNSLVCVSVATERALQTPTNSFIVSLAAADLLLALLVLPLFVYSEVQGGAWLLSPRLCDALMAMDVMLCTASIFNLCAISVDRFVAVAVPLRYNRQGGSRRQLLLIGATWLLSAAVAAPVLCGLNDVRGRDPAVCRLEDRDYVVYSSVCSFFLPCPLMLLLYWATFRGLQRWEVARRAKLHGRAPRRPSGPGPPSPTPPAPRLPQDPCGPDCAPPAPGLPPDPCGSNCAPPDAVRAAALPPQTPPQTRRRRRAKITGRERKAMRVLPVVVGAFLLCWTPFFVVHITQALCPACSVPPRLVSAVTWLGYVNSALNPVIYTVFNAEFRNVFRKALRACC
Procedure: The cells were then centrifuged in a Sorval centrifuge for 10 minutes, 5000 rpm (GS3 rotor) and the pellets quickly frozen in liquid nitrogen and stored at -80° C. until used in binding assay. When used in the assay, cells were thawed on ice for 20 minutes and then 10 mL of incubation buffer (50 mM Tris, 1 mM EDTA, 4 mM MgCl2, 5 mM KCl, 1.5 mM CaCl2, 120 mM NaCl, pH7.4) was added. […] Concentration of receptor protein was determined using the Pierce BCA assay.
(§1) The incubation was started by the addition to 12×75 mm polypropylene tubes 500 μl (50 μg protein) membrane homogenate to a solution of 400 μl incubation buffer, 100 μl ([…].) ^3 H-spiperone (90 Ci/mmol, Amersham, diluted in borosilicate glass vial to) and 500 μl of test compound that was prepared from 1 mM stock dissolved in DMSO and stored at -20° C. in polypropylene cryogenic storage vials until dilution in incubation buffer in borosilicate glass vials.

[2] = target: T2, human D2 receptor (short isoform) (Homo sapiens, UniProt P14416); assay: Dopamine D2 Receptor Binding Assay (3H-spiperone displacement); details: 3H-spiperone 0.25 nM; GH4C1 (rat pituitary) cells stably transfected with human D2 short; 90 minutes, room temperature, pH 7.4
T2 construct: expressed in transfected cells
T2 sequence (P14416 1-414 isoform P14416-2): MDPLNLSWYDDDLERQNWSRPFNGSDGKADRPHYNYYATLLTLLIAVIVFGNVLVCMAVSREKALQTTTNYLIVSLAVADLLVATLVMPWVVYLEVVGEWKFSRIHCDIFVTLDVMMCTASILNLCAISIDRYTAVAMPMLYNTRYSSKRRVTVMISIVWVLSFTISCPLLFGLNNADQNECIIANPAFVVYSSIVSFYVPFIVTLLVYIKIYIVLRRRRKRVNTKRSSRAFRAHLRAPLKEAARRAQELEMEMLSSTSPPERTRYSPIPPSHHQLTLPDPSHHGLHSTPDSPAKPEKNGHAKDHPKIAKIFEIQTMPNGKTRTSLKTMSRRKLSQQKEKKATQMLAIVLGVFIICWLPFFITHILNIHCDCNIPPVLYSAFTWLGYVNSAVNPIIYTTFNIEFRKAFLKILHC
Procedure: GH4 C1 (rat pituitary) cells stably transfected with the human D2 receptor (short isoform) were grown in CO2 independent media in roller bottles (1500 cm^2) for 10 days. 100 μM ZnSO4 was added to the cells (the D2 promoter being zinc inducible). After 16 hours, fresh media was added to allow the cells to recover for 24 hours. The cells were harvested using versene and then centrifuged in a Sorval centrifuge for 10 minutes, at 5000 rpm (GS3 rotor). Pellets were quickly frozen in liquid nitrogen and stored at -80° C. until used in the binding assays. When used in the assay, cells were thawed on ice for 20 minutes.
This assay employed the same procedures as the non-specific binding assay for D4 with the exception that 2 μM (final conc.) of (-) sulpiride (Research Chemicals Inc.) was used in place of dopamine.
as §1

5-HT2 receptor = 5-HT2 receptor (Rattus norvegicus, UniProt P14842); assay: 5-HT2 Receptor Binding Assay (3H-ketanserin displacement)
Chain of 5-HT2 receptor (P14842 whole entry): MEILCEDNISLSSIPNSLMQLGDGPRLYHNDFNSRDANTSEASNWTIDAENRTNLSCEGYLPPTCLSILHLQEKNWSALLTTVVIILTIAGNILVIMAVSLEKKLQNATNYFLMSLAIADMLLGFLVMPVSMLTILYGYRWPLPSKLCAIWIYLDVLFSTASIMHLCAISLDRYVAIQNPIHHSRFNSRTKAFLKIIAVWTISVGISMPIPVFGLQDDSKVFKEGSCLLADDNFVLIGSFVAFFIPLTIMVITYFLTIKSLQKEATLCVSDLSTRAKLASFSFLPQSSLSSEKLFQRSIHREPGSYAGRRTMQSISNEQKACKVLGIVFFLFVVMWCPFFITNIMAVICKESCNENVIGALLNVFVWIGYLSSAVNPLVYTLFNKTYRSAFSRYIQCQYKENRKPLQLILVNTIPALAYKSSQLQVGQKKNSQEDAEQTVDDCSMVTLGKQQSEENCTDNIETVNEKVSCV

CC1CN(C2=Nc3ccccc3Oc3ccccc32)CC(C)N1 (stereo not drawn) [11-(3,5-dimethyl-1-piperazinyl)-dibenz[b,f][1,4]oxazepine]
Ki [1]: 1100 nM | Ki [2]: 6330 nM | Ki (5-HT2 receptor): 368 nM

CC1CN(C2=Nc3ccccc3Oc3ccccc32)C(C)CN1 (stereo not drawn) [11-(2,5-dimethyl-1-piperazinyl)-dibenz[b,f][1,4]oxazepine]
Ki [1]: 4540 nM | Ki [2]: 4890 nM | Ki (5-HT2 receptor): 92 nM

CC1CN(C2=Nc3cc(Cl)ccc3Oc3ccccc32)CC(C)N1 (stereo not drawn) [8-chloro-11-(3,5-dimethyl-1-piperazinyl)-dibenz[b,f][1,4]oxazepine]
Ki [1]: 215 nM | Ki [2]: 2170 nM | Ki (5-HT2 receptor): 13.4 nM

CC1CN(C2=Nc3ccccc3Nc3cc(Cl)ccc32)CC(C)N1 (stereo not drawn) [3-chloro-11-(3,5-dimethyl-1-piperazinyl)-5H-dibenz[b,e][1,4]diazepine]
Ki [1]: 2750 nM | Ki [2]: 14100 nM | Ki (5-HT2 receptor): 24 nM

Reference: US5824676A, “5-HT2 receptor ligands” (Allelix Biopharmaceuticals Inc., priority 1996, dated 1998)
